Assay results taken from patent publication US6149948A, “Method of decreasing plasma cholesterol and triglycerides with a chromium-containing complex” (University of Alabama, priority 1999, dated 2000).

Assays:
male Sprague Dawley rats [1] = assay: Plasma variables after 4, 8 and 12 weeks of supplementation; type: in vivo, rat
Method: Solid food intake and body mass were monitored daily.
Blood was collected from the tail after four, eight, and twelve weeks of Cr or H2 O administration. Prior to blood collection, animals were fasted 12 to 15 hours.
Immediately after blood removal, 0.5 mg/mL heparin and 10 mg/mL NaF were added to the blood. Blood was next immediately centrifuged; the blood plasma was tested for glucose, total cholesterol, triglycerides, low density lipoprotein (LDL) cholesterol (week 12 only), and high density lipoprotein (HDL) cholesterol (week 12 only) using Diagnostic Kits from Sigma Chemical Co. (St. Louis, Mo.) and insulin using double antibody or antibody coated kits from ICN Biomedicals (Costa Mesa, Calif.).
Statistical analyses were performed by analysis of variance. All values are presented as mean±SEM. P values are calculated using standard deviations.

male Sprague Dawley rats [2] = conditions: rat, in vivo
Method: (§1) Four week old male Sprague Dawley rats were allowed to fed ad libitum on a commercial rat food and tap water. Rats were raised in standard plastic and stainless steel cages on a 12 hour light-dark cycle. Solid food intake and body mass were monitored daily. Twenty four rats were divided randomly into three groups of eight. […] The last group was injected with 200 μL of doubly deionized water daily and served as the control. After 12 weeks, the animals were sacrificed by carbon dioxide asphyxiation. Liver, kidney, heart, pancreas, testes, and epididymal fat were quickly harvested and weighed. Liver and kidney were placed into plastic screw-top containers and stored at -80° C. for further analysis.

pUC19 plasmid DNA [3] = tested on: pUC19 plasmid DNA
Method: The reactions contain pUC19 (39 μM in base pairs) and 50 μM phosphate buffer, pH 7.0, and: Lane 2, 5 MM ascorbate; Lanes 3-7, 5 mM ascorbate and 120, 40, 4.0, 0.40, and 0.040 μM 1, respectively; Lane 8, 5 mM ascorbate and 1.2 μM Cr(pic)3 ; Lane 9, 5 mM ascorbate and 120 pM 1 under argon; Lane 10, 5 mM ascorbate, 120 μM 1, and 1 M EtOH; Lane 11, 5 mM ascorbate, 120 μM 1, and 1 M t-BuOH; Lane 12, 5 mM ascorbate, 120 μM 1, and 100 μg/mL SOD; and Lane 13, 5 mM ascorbate, 120 μl , and 100 μ/mL catalase. Reactions were allowed to proceed 60 minutes before quenching.
A typical reaction was carried out mixing aliquots of pUC19 (in 5 μM Tris, 500 EDTA buffer (pH 8.0)), reductant in H2 O, LMWCr in 50 mM NH4 OAc (pH 6.5) or 1 in H2 O, phosphate buffer (pH 7.0), and H2 O to give a final volume of 15 μL; the final phosphate concentration was 50 mM. Inhibitors were added as solutions in H2 O, solutions in phosphate buffer, or as neat liquids. Reactions were allowed to proceed 180 minutes unless otherwise noted. All reactions were quenched by addition of loading buffer (24% glycerol and 0.1% bromophenol blue). Seven microliter aliquots were loaded directly onto a 1% agarose gel and electrophoresed at 60 V. The gel was stained with ethidium bromide and was photographed on a UV transilluminator. […]

DH5α E. coli cells = conditions: DNA incubated 3 hrs with complex and peroxide; ampicillin plates
Method: A reaction mixture containing 10 μg of pUC19, 1.5 mM 1, and 0.900 mM H2 O in 10 mM Tris, pH 8.0 was allowed to react for 3 hours at 25° C. Quench buffer was added, and the sample was immediately loaded onto a 1% agarose gel containing 0.5 μg ml^-1 of ethidium bromide. After electrophoresis in 1×TBE buffer, the band at 3.5 kB was excised from the gel, and the DNA was removed from the gel using a Qiagen gel purification kit. The eluted DNA was gel-quantitated and used without further modification for transformation.
Electrocompetent DH5α E. coli cells were electroporated using 1 μL of 0.1 μg mL^-1 of either trimer-nicked DNA or supercoiled pUC19 plasmid DNA in 50 μL of cells. The E. coli cells were rescued by adding 1 mL of SOC media (20 gL^-1 Bactotryptone, 5 gL^-1 yeast extract, 9 mM NaCl, 20 mM glucose, pH 7.5), followed by incubation at 37° C. for 1 hour. Each cell suspension was diluted 1:100 with SOC media, and 50 μL of each diluted suspension was spread on separate LB-ANM agar plates containing 80 μg mL^-1 X-gal, 100 μM IPTG, and 100 μg mL^-1 ampicillin. The X-gal and IPTG were added to facilitate detection of colonies. The plates were placed in a 37° C. incubator overnight.

[4] = tested on: insulin-activated insulin receptor; conditions: cited from earlier work
pUC19 plasmid DNA [5] = conditions: cited from earlier work
male Sprague Dawley rats [6] = assay: 12-week chromium supplementation of rats: body and tissue masses, toxic effects
Method: as §1

rats = conditions: up to 1500 μg/kg diet for up to 24 weeks; cited from earlier work
[7] = tested on: cultured Chinese hamster ovary cells; conditions: cited from earlier work
[8] = plasma, Week 4, fasted rats, 20 μg Cr/kg daily i.v., mean ± SEM
[9] = plasma, Week 8, fasted rats, 20 μg Cr/kg daily i.v., mean ± SEM
[10] = plasma, Week 12, fasted rats, 20 μg Cr/kg daily i.v., mean ± SEM

CCC(=O)[O-].CCC(=O)[O-].CCC(=O)[O-].CCC(=O)[O-].CCC(=O)[O-].CCC(=O)[O-].O.O.O.[Cr+3].[Cr+3].[Cr+3].[O-2] [Compound 1, [Cr3 O(O2 CCH2 CH3)6 (H2 O)3]^+]
Glucose (male Sprague Dawley rats [1]; [8]): 168 ± 33 mg/dL
Insulin (male Sprague Dawley rats [1]; [8]): 99.0 ± 3.2 μIU/mL
Total cholesterol (male Sprague Dawley rats [1]; [8]): 65.2 ± 3.4 mg/dL
Triglycerides (male Sprague Dawley rats [1]; [8]): 83.3 ± 2.7 mg/dL
Glucose (male Sprague Dawley rats [1]; [9]): 75.5 ± 2.9 mg/dL
Insulin (male Sprague Dawley rats [1]; [9]): 43.3 ± 2.1 μIU/mL
Total cholesterol (male Sprague Dawley rats [1]; [9]): 63.8 ± 3.3 mg/dL
Glucose (male Sprague Dawley rats [1]; [10]): 68.2 ± 2.8 mg/dL
HDL cholesterol (male Sprague Dawley rats [1]; [10]): 10.7 ± 0.65 mg/dL
Insulin (male Sprague Dawley rats [1]; [10]): 43.0 ± 1.9 μIU/mL
LDL cholesterol (male Sprague Dawley rats [1]; [10]): 25.6 ± 2.4 mg/dL
Total cholesterol (male Sprague Dawley rats [1]; [10]): 46.9 ± 2.8 mg/dL
Triglycerides (male Sprague Dawley rats [1]; [10]): 53.2 ± 3.7 mg/dL
LDL cholesterol concentration less than that of the control (male Sprague Dawley rats [1]; week 12): ~40%
total cholesterol concentration less than that of the control (male Sprague Dawley rats [1]; week 12): 33%
iron concentration of liver (male Sprague Dawley rats [2]): 6.0×10^2 μg/g dry mass
DNA cleavage in the presence of dithiothreitol (pUC19 plasmid DNA [3]): does not increase the amount of cleavage
colonies of E. coli transformed with complex-nicked pUC19 versus supercoiled pUC19 (DH5α E. coli cells): the same number of colonies
stimulation of insulin receptor tyrosine kinase activity [4]: mimic the ability of LMWCr to stimulate insulin receptor kinase activity
DNA cleavage (literature) (pUC19 plasmid DNA [5]): not to lead to DNA cleavage
toxic effects of supplementation (male Sprague Dawley rats [6]; 12 weeks, 20 μg Cr/kg daily i.v.): no toxic effects were observed
Tissue mass, Epididymal fat (male Sprague Dawley rats [6]; after 12 weeks, daily tail vein injection, 20 μg Cr per kg body mass, mean ± SEM, eight rats): 4.44 + 0.45 grams

CC(=O)[O-].CC(=O)[O-].CC(=O)[O-].CC(=O)[O-].CC(=O)[O-].CC(=O)[O-].O.O.O.[Cr+3].[Cr+3].[Cr+3].[O-2] [acetate analogue of 1, [Cr3 O(OAc)6 (H2 O)3]^+, reference compound]
DNA cleavage in the presence of biological reductants (literature) (pUC19 plasmid DNA [5]; Cr(pic)3: 120 nM chromium, 5 mM ascorbic acid or thiols, acetate analogue: ascorbate): unable to catalyze DNA cleavage in the presence of ascorbate

chromium(III) tris(picolinate) [Cr(pic)3]
acute toxic effects (rats): no acute toxic effects
DNA strand breaks [7]: lead to DNA strand breaks
